According to patent US6747029B2, “Dopamine D4 receptor antagonists as treatment for attention deficit-hyperactivity disorder” (priority 2001, dated 2004):

Key:
[1] = test system: 6-OHDA-lesioned rats; test: Locomotor activity of juvenile rats with neonatal 6-OHDA lesions (ADHD model); assay type: in vivo, Sprague-Dawley rat; conditions: for motor activity in lesioned rats / effect on lesion-induced hyperactivity (dose dependence): daytime; for effect on lesion-induced hyperactivity (dose dependence): i.p., low and high dosage; for hyperactivity in lesioned rats with psychostimulants: daytime 10:00-16:00 h, dose not given
Text: For example, behavioral studies of juvenile rats with neonatal 6-hydroxydopamine (6-OHDA) lesions, as is described below, can be used to screen drugs in order to identify candidate drugs for use in the method of the invention. […] As a result, juvenile rats with neonatal 6-OHDA lesions are accepted as a laboratory model for ADHD.
On postnatal day (PD) 5, male Sprague-Dawley rat pups randomly received intracisternal injections of vehicle (“sham-lesioned”) (0.9% NaCl containing 0.1% ascorbic acid) or 6-OHDA hydrobromide (“lesioned”) (100 μg free base) into the brain under hypothermal anesthesia at 45 min after pretreatment with desipramine hydrochloride (20 mg/kg free base) injected subcutaneously (s.c.).
Behavioral effects of neonatal lesions were examined by monitoring locomotor activity at PD 21-30 in a novel environment to provoke exploratory activity. Rats were maintained under a 12-h artificial daylight/dark schedule (on, 07:00-19:00 h), with free access to tap-water and standard rat chow. Motor activity was automatically monitored for 90 min between PD 21 and 30, with a computer-controlled photobeam activity monitoring system (San Diego Instruments, San Diego, Calif.). […] […] Sessions were separated by 48 hours. […] Breaking of consecutive photobeams was scored as locomotion.

[2] = test system: non-dopaminergic receptors; conditions: except 5-HT1A and 5-HT2A; cited from earlier work
[3] = biological target: T1, D4 receptors (Homo sapiens, UniProt P21917); conditions: cited from earlier work
T1 sequence (P21917 1-419): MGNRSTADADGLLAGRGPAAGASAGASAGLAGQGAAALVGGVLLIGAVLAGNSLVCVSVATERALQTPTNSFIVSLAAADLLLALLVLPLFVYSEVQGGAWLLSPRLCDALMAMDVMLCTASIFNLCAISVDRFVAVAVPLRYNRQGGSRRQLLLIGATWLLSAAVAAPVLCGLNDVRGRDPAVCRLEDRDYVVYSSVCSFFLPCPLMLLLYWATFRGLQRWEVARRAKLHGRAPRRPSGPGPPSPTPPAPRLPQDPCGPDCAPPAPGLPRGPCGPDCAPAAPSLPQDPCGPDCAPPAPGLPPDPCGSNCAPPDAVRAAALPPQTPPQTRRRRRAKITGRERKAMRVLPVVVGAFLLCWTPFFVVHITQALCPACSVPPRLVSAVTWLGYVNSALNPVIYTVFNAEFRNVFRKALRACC

[4] = test system: sham-lesioned rats; test: Locomotor activity of sham-lesioned control rats; assay type: in vivo, Sprague-Dawley rat; conditions: daytime 10:00-16:00 h
Experimental: (§1) On postnatal day (PD) 5, male Sprague-Dawley rat pups randomly received intracisternal injections of vehicle (“sham-lesioned”) (0.9% NaCl containing 0.1% ascorbic acid) or 6-OHDA hydrobromide (“lesioned”) (100 μg free base) into the brain under hypothermal anesthesia at 45 min after pretreatment with desipramine hydrochloride (20 mg/kg free base) injected subcutaneously (s.c.). Lesions of DA in forebrain tissue sections were verified by quantifying DA transporter binding with [^3H]GBR-12935 (1-[2-(diphenylmethoxy)ethyl]-4-(3-phenylpropyl)piperazine) by computed autoradiography at the completion of experiments as an indication of loss of DA nerve terminals in forebrain.
Behavioral effects of neonatal lesions were examined by monitoring locomotor activity at PD 21-30 in a novel environment to provoke exploratory activity. Rats were maintained under a 12-h artificial daylight/dark schedule (on, 07:00-19:00 h), with free access to tap-water and standard rat chow. Motor activity was automatically monitored for 90 min between PD 21 and 30, with a computer-controlled photobeam activity monitoring system (San Diego Instruments, San Diego, Calif.). […] Breaking of consecutive photobeams was scored as locomotion.

[5] = test system: D2-like receptors; test: Autoradiography of D2-like receptor binding in forebrain after neonatal lesion; assay type: in vivo, rat
Experimental: as §1
(§2) Rats were sacrificed 2 days after the last behavioral testing for autoradiographic analysis of DA receptor density. Frozen coronal brain sections (10 μm) were prepared in a cryostat at −17° C., thaw-mounted on gelatin-coated microscopic slides and stored at −80° C. until quantitative autoradiographic assays. D2-like receptor binding was assayed with 1 nM [^3H]nemonapride in the presence of 0.5 μM 1,3-ditolylguanidine and 0.1 μM pindolol to block 5-HT1A sites in the brain tissue. Nonspecific binding was determined with 10 μM […]. […] Nonspecific binding was determined with 1 μM cis-flupenthixol.

[6] = test system: D4 receptors; test: Autoradiography of D4 receptor binding in forebrain after neonatal lesion; assay type: in vivo, rat
Experimental: as §1, §2

SMILES: CC[C@@H](CO)NC(=O)[C@@H]1C=C2c3cccc4c3c(cn4C)C[C@H]2N(C)C1 [methysergide]
- effect of methysergide alone on lesion-induced hyperactivity ([1]; 2 mg/kg i.p., 30 min prior to testing): failed to affect
- effect of methysergide pretreatment on motor responses to subsequent CP-293,019 ([1]; methysergide 2 mg/kg i.p. 30 min before CP-293,019 30 mg/kg): did not affect

SMILES: Fc1ccc(OCC2CCC3CN(c4ncc(F)cn4)CCN3C2)cc1 (stereo not drawn) [CP-293,019, 7R,S-(4-fluoro-phenoxymethyl)-2-(5-fluoro-pyrimidin-2-yl)-octahydropyrido[1,2-α]pyrazine]
- motor activity in lesioned rats ([1]; 30 mg/kg i.p., 90 min session): indistinguishable from sham-lesioned controls
- nocturnal hyperactivity in lesioned rats ([1]; 30 mg/kg, nocturnal 22:00-04:00 h): completely reversed
- inhibition at 10 mg/kg ([1]; Rattus norvegicus, ip, read-out: inhibition of motor activity in lesioned rats): ~40%
- effect on lesion-induced hyperactivity (dose dependence) [1]: dose-dependent mitigation
- affinity for non-dopaminergic receptors [2]: negligible affinity
- potency at D4 receptors relative to D2 or other DA receptors [3]: more than 1000 times
- selectivity and kind of action at D4 receptors [3]: highly D4 receptor-selective, full antagonist

SMILES: COC(=O)C(c1ccccc1)C1CCCCN1 (racemic) [(±)-methylphenidate]
- hyperactivity in lesioned rats with psychostimulants [1]: reduced
- motor activity in sham-lesioned controls [4]: greatly increased motor activity

SMILES: CC(N)Cc1ccccc1 (single isomer, unassigned; (+)) [(+)-amphetamine]
- hyperactivity in lesioned rats with psychostimulants [1]: reduced
- motor activity in sham-lesioned controls [4]: greatly increased motor activity

SMILES: Clc1ccc(N2CCN(Cc3c[nH]c4ncccc34)CC2)cc1 [L-745,870, 3-{[4-(4-chlorophenyl)piperazin-1-yl]methyl}-1H-pyrrolo[2,3-b]pyridine]
- motor activity in lesioned rats ([1]; 15 mg/kg i.p.): reversed to a level similar to that found in control rats
- selectivity and kind of action at D4 receptors [3]: highly selective fill antagonist

SMILES: NCCc1cc(O)c(O)cc1O [6-OHDA, 6-hydroxydopamine]
- increase of D2-like receptors versus sham ([5]; lateral CPu): 16.6%
- increase of D2-like receptors versus sham ([5]; medial CPu): 18.3%
- increase of D4 receptor binding versus sham ([6]; lateral CPu): 40.3%
- increase of D4 receptor binding versus sham ([6]; medial CPu): 35.2%

SMILES: Fc1ccc2[nH]c(CN3CCN(c4ccccn4)CC3)cc2c1 [CP-226,269]
- effect on lesion-induced hyperactivity (dose dependence) [1]: dose-dependent exacerbation
